Assay results taken from patent US8129427B2, “2-phenylethylamino derivatives as calcium and/or sodium channel modulators” (Newron Pharmaceuticals S.p.A., priority 2005, dated 2012).
pIC50: −log10 of the molar value. Where a name gives a salt, the structure may show the parent alone.

Assays:
TTXs sodium channels = assay: TTXs-sodium channel influx assay (membrane potential fluorescence); format: cell-based, rat; settings: ND7/23 cells, veratridine 100 μM
Experimental: ND7/23 rat dorsal root ganglion-derived cell line endogenously expresses a mixed population of TTXs sodium channels (such as Nav1.3, Nav1.2, Nav1.1, Nav1.6). These cells lack of TTXr sodium channels as shown by the absence of their respective transcripts. ND7/23 cells were grown in DMEM supplemented with 10% FBS and 1 mM sodium piruvate.
The cells were seeded at 50,000 cells/well on 96 poly-L-lysine-coated plates and further incubated for 18-24 h before use.
The Membrane Potential Kit Assay (Molecular Devices), based on a negatively charged fluorescent dye able to monitor changes in membrane potential caused by the sodium influx due to the channel opening, was used for the assay.
Cells were incubated with the dye loading for 30 minutes at 25° C. Then, 100 nM of the toxin Anemonia sulcata (used as enhancer of the channel opener response) alone or in the presence of TTX (as reference standard) or test compound were added for further 15 minutes.
The fluorescence (excitation: 530 nm, emission: 565 nm wavelength) was measured before and after (40-45 s) the automated injection of the sodium channel opener veratridine (100 μM) using a Victor plate reader (Perkin Elmer).
The inhibition curves were calculated from 5 concentrations, each in triplicate, and the IC50 determined using a linear regression analysis.

L-type calcium channels = format: cell-based, mouse; settings: AtT20/D16v-F2 cells, ω-conotoxin 1 μM, 100 mM KCl depolarization
N-type calcium channels = N-type calcium channels (Homo sapiens, UniProt Q00975); assay: N-type calcium channel influx assay (fluorescence); format: cell-based; settings: differentiated IMR32 cells, nifedipine 1 μM, 100 mM KCl depolarization; read-out: IC50
[1] = biological target: T1, recombinant Nav 1.3 channels (Homo sapiens, UniProt Q9NY46); assay: Patch clamp studies of sodium currents inhibition in HEK293 cells; format: cell-based; settings: tonic block, preconditioning −50 mV (half maximal steady-state inactivated condition); read-out: IC50 (Vhalf)
T1 construct: expressed in transfected cells; host or cells: HEK293 cells
Experimental: Cells and methods: Functional inhibition of the sodium currents was studied using whole cell patch clamp methods (Hamill O. P., Marty A., Neher E., Sakmann B., Sigworth F. J., Pflugers Arch. (1981) 391 (2): 85-100) on HEK293 cells expressing recombinant Nav 1.3 channels. Membrane currents were recorded as described in the example above.
For sodium current recording control bath solution contained (mM): NaCl (80), Choline chloride (38), CaCl2 (1.3), MgCl2 (2), KCl (2), CdCl2 (0.4), NiCl2 (0.3), TEA.Cl (20), Hepes (10), Glucose (10). Internal pipette solution consisted of (mM): EGTA (10), NaCl (10), CaCl2 (1.3), MgCl2 (2), Hepes (10), CsF (130), MgATP (1).
(§1) Compounds were dissolved as 20 mM stock solutions in DMSO and then diluted to the final concentration in the external solutions.
Voltage protocols and data analyses: A two-step protocol was used to determine the voltage dependence of the block:
sodium current was activated by a 30 ms step pulse to 10 mV (test pulse) from a 2000 ms preconditioning potential of −100 mV (resting condition) or −50 mV (half maximal steady-state inactivated condition), respectively.
The amplitude of sodium current peaks evoked by the respective test pulses at a frequency of 0.06 Hz were measured before and after exposure to the test substance. Tonic block of currents was calculated as the difference between the Nacurrent peak measured at the end of a stabilization period in the control external bath solution and the current peak measured at the end of test substance perfusion period (when steady state is reached) divided by control peaks. Drug concentration-inhibition curves were obtained by plotting tonic blocks versus drug concentrations. Dose-response curves were fitted to the tonic block data, according to the logistic equation: y=A2+(A1−A2)/[1+(x/IC50)^p]. A1 and A2 are fixed values of 0 and 1 corresponding to 0 and 100% current inhibition, x is the drug concentration, IC50 is the drug concentration resulting in 50% current inhibition and p is the corresponding slope factor.

[2] = biological target: recombinant human N-type channels, h α1B (hCav2.2)+β1b+α2δ-1 subunits (Homo sapiens, UniProt Q00975); assay: Patch clamp studies of calcium currents inhibition in HEK293 cells; format: cell-based; settings: tonic block, preconditioning −50/−55 mV (half maximal steady-state inactivated condition); read-out: IC50 (Vhalf)
Experimental: Functional inhibition of the N-type Ca currents was studied using whole cell patch clamp methods (Hamill O. P., Marty A., Neher E., Sakmann B., Sigworth F. J. Pflugers Arch. (1981) 391: 85-100) on HEK293 cells expressing recombinant human N-type channels, obtained after transient transfection of h α1B (hCav2.2)+β1b+α2δ-1 subunits.
Membrane currents were recorded and filtered at 5 kHz with an Axon Axopatch 200B amplifier and digitized with an Axon Digidata 1322A (Axon Instruments, CA, USA). Voltage clamping of membrane potentials and data acquisition were controlled online with Axon pClamp8 software. Measuring and reference electrodes were AgCl—Ag electrodes. Cells had initial seal resistances of >1 GΩ and access resistances of 4.2±0.2 MΩ. Cells were continuously superfused with extracellular solutions using a Biologic RSC-200.
For calcium currents recording the control bath solution contained (mM): Choline chloride (70), MgCl2 (1), BaCl2 (20), TEA.Cl (50), Hepes (10), Glucose (10). Internal pipette solution consisted of (mM): CsCl (140), EGTA (10), MgCl2 (2), Hepes (10), MgATP (1), GTP Tris (0.3).
as §1
A two-step protocol was used to determine the voltage dependence of the block:
N-type current was activated by a 600 ms step pulse to +10 mV (test pulse) from a 5000 ms preconditioning potential of −110 mV (resting condition) or −50/−55 mV (half maximal steady-state inactivated condition), respectively.
The amplitude of calcium current peaks evoked by the respective test pulses at a frequency of 0.06 Hz were measured before and after exposure to the test substance. Tonic block of currents was calculated as the difference between the peak calcium current measured at the end of a stabilization period in the control external bath solution and peak currents measured at the end of test substance perfusion period (when steady state is reached) divided by control peaks. […]

[3] = tested on: maximal electroshock seizures in mice; assay: Maximal electroshock test (MES) in mice; format: in vivo, mouse; settings: i.v., 5 minutes before testing
Description: Animals and Apparatus: Male CDl mice weighing 25 g were used. The procedure described by White et al. (White H. S., Woodhead J. H., Franklin […]., and Wolf H. H. Antiepileptic Drugs (1995) 4th ed: 99-110, Raven Press, Ltd., New York) was followed. An Ugo Basile electroconvulsive generator (Model ECT UNIT 7801) was used to deliver an electrical stimulus sufficient to produce a hindlimb tonic extensor response in at least 97% of control animals. The stimulus was delivered intra-aurally through clip electrodes in mice (0.7 s of a 40 mA shock, with a pulse train of 80 Hz having a pulse duration of 0.4 ms). […] Ten mice were studied per group. Complete suppression of the hindlimb tonic extensor component of seizures was taken as evidence of anticonvulsant activity.

MAO-B = biological target: T2, MAO-B (Rattus norvegicus, UniProt P19643); assay: In vitro MAO-B enzyme activity radioenzymatic assay; format: biochemical; settings: 100 μM compound, rat brain crude mitochondrial fraction, 14C-PEA substrate
T2 construct: from tissue; host or cells: rat brain crude mitochondrial fraction
T2 sequence (P19643 1-520): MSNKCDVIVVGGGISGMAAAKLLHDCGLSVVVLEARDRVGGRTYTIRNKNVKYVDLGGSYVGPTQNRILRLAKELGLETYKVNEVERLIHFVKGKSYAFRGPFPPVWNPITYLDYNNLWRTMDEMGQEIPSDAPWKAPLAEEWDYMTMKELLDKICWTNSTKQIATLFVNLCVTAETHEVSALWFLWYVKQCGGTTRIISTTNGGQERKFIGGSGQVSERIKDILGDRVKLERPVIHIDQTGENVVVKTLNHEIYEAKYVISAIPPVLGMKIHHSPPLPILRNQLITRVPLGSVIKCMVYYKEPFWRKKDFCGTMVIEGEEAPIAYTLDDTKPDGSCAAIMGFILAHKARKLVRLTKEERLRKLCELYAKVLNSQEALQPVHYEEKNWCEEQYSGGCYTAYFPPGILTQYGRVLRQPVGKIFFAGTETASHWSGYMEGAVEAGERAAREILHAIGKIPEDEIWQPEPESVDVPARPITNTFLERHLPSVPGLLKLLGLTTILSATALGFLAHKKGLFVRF
Experimental: Male Wistar rats (Harlan, Italy—175-200 g) were sacrificed under light anaesthesia and brains were rapidly removed and homogenized in 8 volumes of ice-cold 0.32 M sucrose buffer containing 0.1 M EDTA, pH 7.4. The crude homogenate was centrifuged at 2220 rpm for 10 minutes and the supernatant recovered. The pellet was homogenized and centrifuged again. The two supernatants were pooled and centrifuged at 9250 rpm for 10 minutes at +4° C. The pellet was resuspended in fresh buffer and centrifuged at 11250 rpm for 10 minutes at +4° C. The resulting pellet was stored at −80° C.
The enzyme activities were assessed with a radioenzymatic assay using the substrates ^14C-serotonin (5-HT) and ^14C-phenylethylamine (PEA) for MAO-A and MAO-B, respectively.
The mitochondrial pellet (500 μg protein) was resuspended in 0.1 M phosphate buffer (pH 7.4). 500 μl of the suspension were added to a 50 μl solution of the test compound or buffer, and incubated for 30 min at 37° C. (preincubation) then the substrate (50 μl) was added. The incubation was carried out for 30 minutes at 37° C. (^14C-5-HT, 5 μM) or for 10 minutes at 37° C. (^14C-PEA, 0.5 μM).
The reaction was stopped by adding 0.2 ml of 37% HCl or perchloric acid. After centrifugation, the deaminated metabolites were extracted with 3 ml of diethyl ether (5-HT) or toluene (PEA) and the radioactive organic phase was measured by liquid scintillation spectrometry at 90% efficiency. The amount of neutral and/or acidic metabolites formed as a result of MAO activity was obtained by measuring the radioactivity of the eluate.
The activity of MAO in the sample, corresponding to a percentage of radioactivity compared with the control activity in the absence of the inhibitor, was expressed as nmoles of substrate transformed/mg protein/min.

Chain of N-type calcium channels (Q00975 whole entry): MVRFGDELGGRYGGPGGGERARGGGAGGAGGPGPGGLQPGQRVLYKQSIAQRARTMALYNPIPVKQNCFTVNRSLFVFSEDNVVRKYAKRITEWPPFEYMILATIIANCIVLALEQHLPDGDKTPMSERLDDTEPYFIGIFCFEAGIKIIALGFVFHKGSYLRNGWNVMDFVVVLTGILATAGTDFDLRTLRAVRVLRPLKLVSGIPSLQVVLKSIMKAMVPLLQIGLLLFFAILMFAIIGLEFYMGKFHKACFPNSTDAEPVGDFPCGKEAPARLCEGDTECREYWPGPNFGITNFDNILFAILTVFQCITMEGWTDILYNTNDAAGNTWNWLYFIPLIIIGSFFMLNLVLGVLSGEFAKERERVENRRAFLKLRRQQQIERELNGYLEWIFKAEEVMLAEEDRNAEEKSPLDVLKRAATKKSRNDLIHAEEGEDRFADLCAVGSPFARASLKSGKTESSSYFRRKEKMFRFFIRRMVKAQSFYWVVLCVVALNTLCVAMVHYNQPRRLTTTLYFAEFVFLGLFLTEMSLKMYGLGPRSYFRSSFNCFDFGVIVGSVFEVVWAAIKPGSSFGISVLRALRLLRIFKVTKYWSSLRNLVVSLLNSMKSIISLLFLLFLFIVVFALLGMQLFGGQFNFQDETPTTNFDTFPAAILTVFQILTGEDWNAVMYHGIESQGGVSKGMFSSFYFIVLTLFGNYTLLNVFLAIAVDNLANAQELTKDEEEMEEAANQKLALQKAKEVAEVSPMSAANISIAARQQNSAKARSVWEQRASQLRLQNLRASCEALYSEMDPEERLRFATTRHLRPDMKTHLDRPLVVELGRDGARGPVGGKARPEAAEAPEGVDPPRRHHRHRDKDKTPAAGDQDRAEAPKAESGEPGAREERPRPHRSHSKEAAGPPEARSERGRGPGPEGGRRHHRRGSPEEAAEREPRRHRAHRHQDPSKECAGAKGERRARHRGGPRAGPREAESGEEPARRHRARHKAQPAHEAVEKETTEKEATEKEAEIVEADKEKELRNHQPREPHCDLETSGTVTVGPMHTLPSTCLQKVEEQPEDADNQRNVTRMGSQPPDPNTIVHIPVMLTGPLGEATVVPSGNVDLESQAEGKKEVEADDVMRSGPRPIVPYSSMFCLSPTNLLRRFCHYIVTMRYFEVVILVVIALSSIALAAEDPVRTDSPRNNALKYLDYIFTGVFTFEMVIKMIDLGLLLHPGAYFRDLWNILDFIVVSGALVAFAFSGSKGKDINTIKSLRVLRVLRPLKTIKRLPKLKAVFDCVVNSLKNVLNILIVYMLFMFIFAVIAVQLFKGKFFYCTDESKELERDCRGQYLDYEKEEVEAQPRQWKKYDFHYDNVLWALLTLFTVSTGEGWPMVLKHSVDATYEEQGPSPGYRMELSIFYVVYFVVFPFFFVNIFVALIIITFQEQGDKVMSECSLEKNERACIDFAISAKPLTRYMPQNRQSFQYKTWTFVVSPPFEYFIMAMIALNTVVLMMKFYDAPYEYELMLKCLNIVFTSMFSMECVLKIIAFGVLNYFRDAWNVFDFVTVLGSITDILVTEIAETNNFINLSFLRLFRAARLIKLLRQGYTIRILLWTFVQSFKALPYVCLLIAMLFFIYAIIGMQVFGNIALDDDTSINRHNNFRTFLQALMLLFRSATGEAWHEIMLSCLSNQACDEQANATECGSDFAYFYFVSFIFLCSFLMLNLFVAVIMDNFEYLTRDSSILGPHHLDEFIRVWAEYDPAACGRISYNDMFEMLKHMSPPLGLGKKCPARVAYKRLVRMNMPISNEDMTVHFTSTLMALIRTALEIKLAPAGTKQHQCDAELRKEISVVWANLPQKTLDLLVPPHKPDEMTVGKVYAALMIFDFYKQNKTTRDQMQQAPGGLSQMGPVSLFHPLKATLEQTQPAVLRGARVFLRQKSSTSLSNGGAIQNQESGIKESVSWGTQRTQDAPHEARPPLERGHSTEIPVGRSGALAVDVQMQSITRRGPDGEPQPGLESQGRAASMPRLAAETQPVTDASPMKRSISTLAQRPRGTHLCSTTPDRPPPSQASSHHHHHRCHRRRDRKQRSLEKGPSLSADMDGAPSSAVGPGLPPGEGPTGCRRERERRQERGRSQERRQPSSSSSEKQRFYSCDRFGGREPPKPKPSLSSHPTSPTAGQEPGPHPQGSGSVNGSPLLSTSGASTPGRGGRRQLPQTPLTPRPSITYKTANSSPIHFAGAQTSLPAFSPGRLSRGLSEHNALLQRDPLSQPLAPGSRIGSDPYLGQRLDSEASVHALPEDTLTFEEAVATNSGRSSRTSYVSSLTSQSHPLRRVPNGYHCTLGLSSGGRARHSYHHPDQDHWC
Chain of N-type calcium channels (Q02641 whole entry partner): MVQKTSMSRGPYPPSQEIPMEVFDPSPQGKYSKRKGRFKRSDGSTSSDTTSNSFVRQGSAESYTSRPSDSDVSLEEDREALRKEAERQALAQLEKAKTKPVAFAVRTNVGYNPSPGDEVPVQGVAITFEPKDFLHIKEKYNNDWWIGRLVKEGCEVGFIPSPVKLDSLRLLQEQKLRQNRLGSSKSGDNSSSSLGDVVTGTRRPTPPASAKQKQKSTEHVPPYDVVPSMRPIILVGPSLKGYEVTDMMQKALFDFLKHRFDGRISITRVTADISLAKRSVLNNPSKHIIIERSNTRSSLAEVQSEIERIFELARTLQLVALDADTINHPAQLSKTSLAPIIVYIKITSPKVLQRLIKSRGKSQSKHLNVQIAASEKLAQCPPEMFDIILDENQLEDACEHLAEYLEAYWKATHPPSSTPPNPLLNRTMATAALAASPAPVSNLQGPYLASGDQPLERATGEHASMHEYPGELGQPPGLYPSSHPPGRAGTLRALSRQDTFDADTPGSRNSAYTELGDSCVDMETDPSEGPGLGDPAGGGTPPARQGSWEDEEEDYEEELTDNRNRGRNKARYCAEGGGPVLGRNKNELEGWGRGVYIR
Chain of N-type calcium channels (P54289 25-956 partner limits assumed): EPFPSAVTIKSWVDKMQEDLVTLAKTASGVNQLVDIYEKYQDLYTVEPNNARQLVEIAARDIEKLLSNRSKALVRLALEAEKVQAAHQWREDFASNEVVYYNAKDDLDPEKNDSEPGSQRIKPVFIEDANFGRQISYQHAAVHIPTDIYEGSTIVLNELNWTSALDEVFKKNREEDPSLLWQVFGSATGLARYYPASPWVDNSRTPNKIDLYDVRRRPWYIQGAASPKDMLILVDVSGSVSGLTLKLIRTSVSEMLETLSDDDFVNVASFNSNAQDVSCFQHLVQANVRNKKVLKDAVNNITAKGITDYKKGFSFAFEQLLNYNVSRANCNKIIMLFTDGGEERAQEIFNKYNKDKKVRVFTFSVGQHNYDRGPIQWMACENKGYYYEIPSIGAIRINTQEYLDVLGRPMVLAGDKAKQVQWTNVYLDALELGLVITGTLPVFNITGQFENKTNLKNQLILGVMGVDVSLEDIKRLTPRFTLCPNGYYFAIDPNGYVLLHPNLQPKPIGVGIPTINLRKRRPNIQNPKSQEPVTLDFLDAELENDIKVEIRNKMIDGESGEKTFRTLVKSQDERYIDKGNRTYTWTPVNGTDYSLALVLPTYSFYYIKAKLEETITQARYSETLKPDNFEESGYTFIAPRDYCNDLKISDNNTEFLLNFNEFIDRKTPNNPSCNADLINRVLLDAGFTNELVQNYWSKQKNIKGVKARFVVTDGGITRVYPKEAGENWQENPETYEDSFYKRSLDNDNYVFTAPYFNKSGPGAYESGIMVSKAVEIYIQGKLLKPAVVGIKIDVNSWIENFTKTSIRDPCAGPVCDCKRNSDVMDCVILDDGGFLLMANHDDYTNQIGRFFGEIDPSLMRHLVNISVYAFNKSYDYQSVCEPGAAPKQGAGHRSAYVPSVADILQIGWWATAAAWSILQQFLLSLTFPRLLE
Chain of N-type calcium channels (P54289 957-1103 partner limits assumed): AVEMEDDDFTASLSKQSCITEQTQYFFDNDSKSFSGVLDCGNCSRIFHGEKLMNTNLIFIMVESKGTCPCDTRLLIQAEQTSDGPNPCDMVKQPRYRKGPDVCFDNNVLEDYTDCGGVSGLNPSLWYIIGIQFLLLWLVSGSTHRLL
Chain of recombinant human N-type channels, h α1B (hCav2.2)+β1b+α2δ-1 subunits (Q00975 whole entry): as the sequence (Q00975 whole entry) above
Chain of recombinant human N-type channels, h α1B (hCav2.2)+β1b+α2δ-1 subunits (Q02641 whole entry partner): as the sequence (Q02641 whole entry partner) above
Chain of recombinant human N-type channels, h α1B (hCav2.2)+β1b+α2δ-1 subunits (P54289 25-956 partner limits assumed): as the sequence (P54289 25-956 partner limits assumed) above
Chain of recombinant human N-type channels, h α1B (hCav2.2)+β1b+α2δ-1 subunits (P54289 957-1103 partner limits assumed): as the sequence (P54289 957-1103 partner limits assumed) above

Structure (SMILES)	pIC50 (TTXs sodium channels)	pIC50 (L-type calcium channels)	pIC50 (N-type calcium channels)	pIC50 [1]	pIC50 [2]	50% Protection [3]	inhibition at 100 µM (MAO-B) [%]
CNC(=O)CN(CCc1ccc(OCc2cccc(F)c2)c(OC)c1)CC1CC1 [Example 8, 2-[[2-[4-(3-Fluoro-benzyloxy)-3-methoxy-phenyl]-ethyl]-(cyclopropylmethyl)amino]-N-methyl-acetamide hydrochloride]	5.46	5.42	5.68	5.01	5.28	–	–
C[C@H](NCc1ccc(OCc2cccc(F)c2)cc1)C(N)=O [safinamide, (S)-(+)-2-[4-(3-fluoro-benzyloxy)-benzylamino]-propanamide, reference compound]	–	–	–	–	–	(4.0 mg/kg/iv)	100
